The test system of one assay is SGC-7901. Put plainly: MTT cytotoxicity assay. It is filed as cell-based, human. The conditions noted are these: 48 h drug exposure. On the procedure: (§1) The results reveal that the steric hindrance plays a significant role in the cytotoxicity of complex 3.
(§2) Human cancer cell lines HepG2, SGC-7901, HCT-116, A549, NCI-H1299 and MCF-7 as well as normal liver cell line L02 were purchased from the Cell Bank of Shanghai Institute of Cell Biology. Among them, MCF-7, HepG2 cells were cultured at 37 °C in 5% CO2 with DMEM supplemented with 10% fetal bovine serum (FBS) (Hyclone, Lifescience, USA) and 1% penicillin/streptomycin (Beyotime, Nantong, China), while HCT-116, SGC-7901, A549, NCI-H1299 and L02 cells were cultured at 37 °C in 5% CO2 with RPMI-1640 supplemented with 10% FBS and 1% penicillin/streptomycin. Cells were passed every 2 days and restarted from frozen stocks upon reaching pass number 20.
(§3) In vitro cytotoxicity of the platinum compounds against human hepatocellular carcinoma (HepG-2), gastric carcinoma (SGC-7901), non-small-cell lung cancer (A549), and colorectal cancer (HCT-116) cell lines were measured by the MTT assays. Briefly, the cells were seeded in 96-well cultured plates at a density of 5000 cells/well. After overnight incubation (16 h), the cells were treated with the platinum complexes. After 48 h of incubation, 10 μL of a freshly diluted 3-(4,5-dimethyl-2-thiazolyl)-2,5-diphenyl-2H-tetrazolium bromide (MTT) solution (5 mg/mL) were added to each well and the plates were incubated at 37 °C in a humidified 5% CO2 atmosphere for 4 h. At the end of the incubation period the medium was removed and the formazan product was dissolved in 150 μL of DMSO. The cell viability was evaluated by measurement of the absorbance at 490 nm, using an Absorbance Reader (BioRad). IC50 values (compound concentration that produces 50% of cell growth inhibition) were calculated from curves constructed by plotting cell survival inhibitory rate (%) versus drug concentration logarithm. All experiments were repeated in three times. The reading values were converted to the percentage of control (% cell survival). Cytotoxic effects were expressed as IC50 values.

Another assay has as its system HepG2. Description: MTT cytotoxicity assay. As to conditions: 48 h drug exposure. Type of assay: cell-based, human. As for the experimental part: as §1, §2, §3
On the technique in general: Formazan colour is commonly taken as a measure of viable cells.

In the next assay the test system is HCT-116. Description: MTT cytotoxicity assay. It is filed as cell-based, human. The conditions noted are these: 48 h drug exposure. As for the experimental part: as §1, §2, §3
A further assay concerns NCI-H1299. Description: MTT cytotoxicity assay. It is filed as cell-based, human. The conditions noted are these: 48 h drug exposure, read-out: IC50 NCI-H1299. On the procedure:
as §1
(§4) The effects of complex 3 on the viability of NSCLC cancer cells including A549 and NCI-H1299 were detected respectively via MTT assays at time points of 12, 24, 48 and 72 h (Figure 2A). The results shown that complex 3 could inhibit the viability of the NSCLC cells.
as §2, §3

The subject of the next assay is A549. Description: MTT cytotoxicity assay. It is filed as cell-based, human. As to conditions: 48 h drug exposure. As for the experimental part:
as §1, §4, §2, §3

Assay [1] deals with L02 normal liver cell line. Description: MTT cytotoxicity assay. It is filed as cell-based. The conditions noted are these: 48 h drug exposure. As for the experimental part: as §1, §2, §3
For assay [2], the system named is A549 cells. Put plainly: Quantification of apoptotic cells (annexin V/PI flow cytometry). It is filed as cell-based, human. As to conditions: A549, NAC pretreatment. On the procedure:
(§5) The role of complex 3-induced autophagy in cell death was further analyzed (Figure 6). When A549 cancer cells were treated with complex 3 of 10 μM, the protein expression of LC3-II was increased (Figure 6A). […] Treatment with complex 3 for 24 h caused a 4.5-folds increase in cells undergoing autophagy (Figure 6C). […] Moreover, Bax and Bcl-2 expressions were measured by western blot analysis of whole cell lysates.
(§6) To investigate the role of ROS in complex 3-induced cell death, the level of intracellular H2O2 was measured. […] Exposure of A549 cells to NAC reduced levels of LC3-II from 2.3- to 1.5-folds (Figure 8B). […] In parallel, the complex 3-induced increase ratio of Bax/Bcl-2 was suppressed by NAC (Figure 8E).
The mode of cell death was analyzed by flow cytometry with annexin V/propidium iodide (PI) double-staining to detect membrane events according to a previous study. After individual treatments, whole cells were collected in 4-(2-hydroxyethyl)-1-piperazineethanesulfonic acid (HEPES) buffer containing 10 mM HEPES (pH 7.4), 140 mM NaCl, and 2.5 mM CaCl2. Cells were subsequently stained with annexin V (2.5 μg/ml) and PI (2 ng/ml) for 20 min, followed by analysis by flow cytometry (Beckman Coulter). Cystograms of the four quadrants in the figure were used to distinguish normal (annexin V^−/PI^−), early apoptotic (annexin V^+/PI^−), late apoptotic(annexin V^+/PI^+), and necrotic cells (annexin V^−/PI^+). The sum of early apoptosis and late apoptosis is presented as total apoptosis.
Background: Flow cytometry measures light scatter and fluorescence of single cells or particles in a stream.

The next assay has as its system MCF-7. Put plainly: MTT cytotoxicity assay. It is filed as cell-based, human. As to conditions: exposed for 48 h. As for the experimental part:
as §2
In vitro cytotoxicity of the platinum compounds against human hepatocellular carcinoma (HepG-2), gastric carcinoma (SGC-7901), non-small-cell lung cancer (A549), and colorectal cancer (HCT-116) cell lines were measured by the MTT assays. Briefly, the cells were seeded in 96-well cultured plates at a density of 5000 cells/well. After overnight incubation (16 h), the cells were treated with the platinum complexes. […] The cell viability was evaluated by measurement of the absorbance at 490 nm, using an Absorbance Reader (BioRad). […] The reading values were converted to the percentage of control (% cell survival). Cytotoxic effects were expressed as IC50 values.

Assay [3] deals with A549 cells. Description: Autophagy by acridine orange flow cytometry (AVOs). It is filed as cell-based, human. As to conditions: A549, NAC pretreatment. On the procedure: as §5, §6
Flow cytometry with acridine orange staining as described in a previous study was used to detect and quantify the AVOs, one of the characteristicsof autophagy. At the end of individual experiments, A549 cells were collected in phenol red-free RPMI 1640 medium. Green (FL-1) and red (FL-3) fluorescences of acridine orange were measured using a flow cytometer and CellQuest software (Becton Dickinson, San Jose, CA). The sum of the upper-left and upper-right quadrants of the cytogram was used to estimate the percentage of cells undergoing autophagy.

The test system of the next assay is p-mTOR. Put plainly: Western blot of PI3K/Akt/mTOR pathway. Type of assay: cell-based, human. As to conditions: A549, 10 μM, 24 h, relative to control. The source says:
(§7) The mammalian target of rapamycin (mTOR) kinase is used to regulate autophagy as controlled though oxidative stress, hypoxia and growth receptors. The phosphatidylinosital-3 kinase (PI3K)/Akt signaling pathway activates mTOR through phosphorylating and inactivating the tuberous sclerosis complex (TSC)1–TSC2 complex. Inhibition of mTOR results in activation of autophagy. […] At the same time, levels of the p-Akt protein decreased to 0.95-, 1.02-, and 0.39-folds, respectively (Figure 7B). […] As a results, the administration of complex 3 decreased levels of proteins in PI3K/Akt/mTOR signaling pathways.
(§8) Lysates were centrifuged at 12,000 g for 0.5 h at 4°C. The concentrations of total proteins were measured using the BCA assay method with Varioskan spectrofluorometer and spectrophotometer (Thermo, Waltham, MA) at 562 nm. Protein (20–100 μg) prepared from the indicated cells was loaded per lane and electrophoresed in 8% or 10% sodium dodecyl sulfate polyacrylamide gel electrophoresis (SDS-PAGE), and then transferred onto polyvinylidene difluoride (PVDF) Immobilon-P membrane (Bio-Rad, USA) using a transblot apparatus (Bio-Rad, USA). The membranes were blocked with 5% (w/v) non-fat milk at 0.5 h at 37°C, followed by overnight incubation at 4°C with primary antibodies diluted in PBST. After washing with PBST, the membranes were incubated for 1 h with an IRDye´800 conjugated secondary antibody diluted 1:20000 in PBST, and the labeled proteins were detected with an Odyssey Scanning System (Li-COR., Lincoln, Nebraska, USA).

The subject of a further assay is p-Akt. Put plainly: Western blot of PI3K/Akt/mTOR pathway. As to conditions: A549, 10 μM, 24 h, relative to control. It is filed as cell-based, human.
Excerpt: as §7, §8

Another assay deals with NCI-H1299 cells. Put plainly: Annexin V-FITC/PI apoptosis assay (flow cytometry). As to conditions: NCI-H1299, 50 μM for 24 h (figure legend and method: 10 μM). Type of assay: cell-based, human. On the procedure: (§9) Apoptosis is a crucial programmed death form of aging or damaged cells. […] To further explore the impact of complex 3 on long-term clonogenic survival, colony formation assay was performed.
(§10) Annexin V-FITC apoptosis detection kit (Keygen, Jiangsu, China) assay was performed according to the manufacturer's protocol. […] Then the cells were collected, resuspended in binding buffer (pH 7.5, 10 mM HEPES, 2.5 mM CaCl2 and 140 mM NaCl), incubated with Annexin V-FITC and then PI for 10 min in the dark at room temperature, the processed cells were analyzed by flow cytometry (FACSCalibur, Becton Dickinson) and a computer station running Cell-Quest software. (BD Biosciences, Franklin Lakes, NJ).

The test system of assay [4] is A549 cells. Description: Annexin V-FITC/PI apoptosis assay (flow cytometry). It is filed as cell-based, human. As to conditions: A549, 50 μM for 24 h (figure legend and method: 10 μM). As for the experimental part:
as §9, §10

For the next assay, the system named is pET28a plasmid DNA. Put plainly: Agarose gel electrophoresis of plasmid DNA. As to conditions: 0, 20, 80, 320, 640 μM.

Some results are limits rather than exact numbers.

Experimental for pET28a plasmid DNA: The tested complexes were incubated with DNA at different concentrations.
Appropriate dilutions of tested complexes were made, and the required volumes of solutions were added to achieve a set of concentrations in the range of 0–100 mm; pET22b DNA (5 mL, 0.20 mg) was added to each tube, and the mixtures of platinum complexes and pET22b plasmid DNA were then incubated at 37°C for 6 or 24 h. Afterward, the agarose gel (made up to 1% w/v) containing ethidium bromide was prepared with TA buffer (50 mm Tris-acetate, pH 7.5). The mixtures with loading buffer (1 mL) underwent electrophores is in agarose gel in TA buffer at 100 V for 60 min. Bands were imaged using a Molecular Imager (Bio-Rad, USA) under UV light.

Regarding `CC(C)C[NH+]1[C@@H]2CCCC[C@H]2[NH+](CC(C)C)[Pt-2]12[O]C(=O)C(=O)[O]2` (stereo partly shown) [Complex 2], the IC50 (as a rule, the concentration needed to halve the response being measured) in the assay on SGC-7901 is > 100 µM; with HepG2, > 100 µM; with HCT-116 it was 37 ± 2.76 µM; with NCI-H1299, > 100 µM; in the assay with A549, 28.4 ± 1.45 µM; in [1], > 100 µM.

Take `CC(C)C[NH+]1[C@@H]2CCCC[C@H]2[NH+](CC(C)C)[Pt-2]1([Cl])[Cl]` (stereo partly shown) [Complex 1]: the IC50 was 44.6 ± 3.24 µM in the assay with SGC-7901; 34.1 ± 2.55 µM in the assay with HepG2; 70.5 ± 5.56 µM in the assay on HCT-116; > 100 µM in the assay with NCI-H1299; > 100 µM with A549; 148 ± 10.6 µM in assay [1].

With `CC(C)C[NH+]1[C@@H]2CCCC[C@H]2[NH+](CC(C)C)[Pt-2]12[O]C(=O)C1(CCC1)C(=O)[O]2` (stereo partly shown) [Complex 4], the IC50 (in the assay on SGC-7901; in the assay on HepG2; with HCT-116; with NCI-H1299; with A549; in assay [1]) was > 100 µM throughout.

On to `CC(C)CN[C@@H]1CCCC[C@H]1N.O=C([O-])CC(=O)[O-].[Pt+2]` [Complex 3a, [(1R,2R)-N^1-(2-methylpropyl)-1,2-cyclohexanediamine-N,N’](malonato-O,O’), reference compound], for which, in the assay with A549 cells [2], the “effect of NAC pretreatment on percentage of apoptosis” value is recorded as “no decreased percentage”. Besides, the IC50 was > 100 µM in the assay on HepG2; 65.8 ± 4.95 µM with HCT-116; 94.9 ± 6.74 µM in the assay on NCI-H1299; 77.5 ± 5.04 µM in the assay on A549; > 100 µM in the assay on MCF-7. For the same compound, the “effect of NAC pretreatment on percentage of autophagy” value in the assay with A549 cells [3] is “no decreased percentage of autophagy”. The “amounts of p-mTOR” value in the assay on p-mTOR was 0.69 folds. Further, the “levels of the p-Akt protein” value in the assay on p-Akt is recorded as 0.39 folds. For the same compound, the “early and median apoptotic cells” value turned out to be 4.58% in the assay on NCI-H1299 cells and 12.37% with A549 cells [4]. In addition, the late apoptotic cells in the assay on NCI-H1299 cells is given as 4.12%. The “gel electrophoretic mobility of plasmid DNA” value in the assay with pET28a plasmid DNA is “no migration was observed”.

For the origin of these results see PMC5458179, “Oxidative DNA double strand breaks and autophagy in the antitumor effect of sterically hindered platinum(II) complexes in NSCLCs” (Oncotarget, 2017).
